{"source": "paper PMC8765310", "about": "“Metabolism, Excretion, and Mass Balance of [^14C]-Rezafungin in Animals and Humans” (Antimicrobial Agents and Chemotherapy, 2022)", "key": {"[1]": {"test": "Monkey excretion/mass balance of [14C]-rezafungin", "format": "in vivo, cynomolgus monkeys", "description": "(§1) (ii) Monkey study design. The study used 3 male cynomolgus monkeys, each administered a single 10 mg/kg IV dose of [^14C]-rezafungin (with a target radioactivity of 100 μCi/kg of [^14C]-rezafungin) by infusion into a saphenous vein over 20 min. Whole blood and plasma samples were collected at each of the following time points: predose, 0.5, 2, 4, 8, 24, 48, 96 120, 144, 168, 240, 480, 720, and 1440 h postdose. Urine, feces, and cage washings were collected at predose (urine/feces only) and daily 24-h collections for 30 days.\n(§2) (iii) Sample analysis. Whole blood and fecal homogenates were combusted prior to analysis by liquid scintillation counting (LSC). Blood, plasma, bile, urine, cage rinse/wash, and fecal homogenate samples were mixed with scintillation fluid and analyzed for radioactivity by LSC. Rat carcasses were dissolved in potassium hydroxide, and the resulting digests were mixed with scintillation fluid and analyzed for radioactivity by LSC."}, "[2]": {"test": "Rat blood and plasma radioactivity pharmacokinetics", "format": "in vivo, Sprague-Dawley rats", "conditions": "IV [14C]-rezafungin 15 mg/kg, mean plasma concentrations", "description": "(§3) (i) Rat study design. The study used 12 male Sprague-Dawley rats, each administered a bolus IV injection into the tail vein over approximately 3–4 min of 15 mg/kg of rezafungin (with a target radioactivity of 200 μCi/kg of [^14C]-rezafungin). Three of the rats were bile duct cannulated. Whole blood/plasma, urine, feces/bile, and cage washings were collected at periodic intervals from noncannulated rats until euthanization at 336 h postdose and from bile duct cannulated rats until euthanization at 120 h postdose as that was the duration that the patency of bile duct cannulae could be maintained. Carcasses were collected at the time of euthanization. All samples were analyzed for drug-derived radioactivity by liquid scintillation counting.\nas §2"}, "[3]": {"test": "Monkey blood and plasma radioactivity pharmacokinetics", "format": "in vivo, cynomolgus monkeys", "description": "as §1, §2"}, "[4]": {"test": "Rat excretion/mass balance of [14C]-rezafungin", "format": "in vivo, Sprague-Dawley rats", "conditions": "LSC; for Radioactivity recovered in feces: mean", "description": "as §3, §2"}, "[5]": {"test": "Clinical safety in the human mass balance study", "format": "in vivo", "conditions": "single IV 400-mg infusion", "description": "(§4) (i) Study design. This was an open-label, phase I, single-dose mass balance study. The study was conducted at Labcorp (formerly, Covance, Inc.; Madison, WI) in accordance with good clinical practice, including ICH guidelines and applicable regulatory requirements, and in general conformity with the Declaration of Helsinki. No animal work was conducted by Labcorp. All pertinent study documents were reviewed by the Institutional Review Board (IRB) prior to study initiation. Following IRB approval and collection of written informed consent, all the subjects underwent an initial screening assessment within 28 days of the first dose. Safety was assessed by vital signs, physical examinations, AE assessments, laboratory tests (chemistry, hematology, and urinalysis), and a 12-lead electrocardiogram."}, "[6]": {"test": "Human clinical pharmacokinetics (plasma rezafungin, plasma and whole blood total radioactivity)", "format": "in vivo", "description": "as §4\nSubjects were initially confined in the clinical research unit (CRU) for 17 days postdose and returned for two follow-up visits (days 29 and 60). Recovery of radioactivity was estimated by linear interpolation during the period of time subjects were away from the CRU. Blood samples, urine, and feces were collected at specified times over 60 days.\n(ii) Sample analysis. Whole blood, plasma, urine, and fecal homogenate samples were mixed with scintillation fluid and analyzed by liquid scintillation counting. For non-radiolabeled rezafungin concentration determination, a bioanalytical method was validated for measuring rezafungin in human plasma that is similar to one previously reported for animal plasma ([16]). Samples were analyzed using a 100 μl aliquot volume and a protein-precipitation extraction procedure followed by liquid chromatography/tandem mass spectrometry (LC-MS/MS) analysis. Chromatography was carried out on a Waters Atlantis HPLC column (dC18, 2.1 × 50 mm, 5 μm) operating under reverse-phase gradient conditions (0.1% formic acid in water/0.1% formic acid in acetonitrile/tetrahydrofuran ramped from 55%/45%/0% to 5%/0%/95%). Rezafungin calibration range was 10.0 ng/ml to 10,000 ng/ml using isotopically-labeled d9-rezafungin as an internal standard. An AB-Sciex API 4000 mass spectrometer was operated in the multiple reaction monitoring mode (parent-to-product ion transition) under optimized conditions for detection of rezafungin (m/z 604.5 to 343.3 Da) and d9-rezafungin (m/z 609.5 to 343.3 Da) positive ions formed by electrospray ionization. Excellent intra- and inter-assay accuracy and precision, as measured by quality control (QC) samples, was obtained during validation. Across the range of QC samples tested (lower limit of quantitation, LLOQ, through the High QC range), the intra-assay accuracy (% bias from nominal) ranged from −1.4% to 7.0% with the intra-assay precision (% coefficient of variation) ranging from 1.6% to 7.4%. Inter-assay accuracy ranged from 0.3% to 4.3% with the inter-assay precision ranging from 2.7% to 5%.\n(iv) Metabolite profiling. Plasma samples were pooled across subjects through 672 h postdose to produce inter-subject time point pools. Urine and fecal homogenate samples were pooled by subject across various time points up through 408 and 672 h postdose, respectively. Selected samples of plasma, urine, and feces were profiled for rezafungin and metabolites by HPLC with radiochemical and high-resolution mass spectrometry detection; metabolites were identified by HPLC with known standards and/or by HPLC-MS/MS structure elucidation. Pharmacokinetics were calculated by non-compartmental analysis using Phoenix WinNonlin software (version 6.3/8.1; Pharsight, Mountain View, CA)."}, "[7]": {"conditions": "monkeys, 10 mg/kg IV, through 720 h postdose"}, "[8]": {"conditions": "bile duct cannulated rats, IV 15 mg/kg, until 120 h postdose, average"}, "[9]": {"conditions": "intact rats, IV 15 mg/kg, through 336 h postdose, average"}, "[10]": {"conditions": "single 400-mg IV infusion, LSC, mean (SD)"}, "[11]": {"conditions": "single 400-mg IV infusion, mean (SD)"}, "[12]": {"conditions": "single 400-mg IV infusion, median (min, max)"}}, "note": "*1 amine or outer side, *2 acyl side, *3 side chain or, on linkers, in order; H or OH if unused. Where a SMILES comes first, the peptide text is derived from it. Bridges are numbered along the chain shown (N, C = ends). [ ]: non-standard residue; d: D form. The star is where a group is joined. Orn(4R-OH,5R-OCH2CH2NMe3+) = C[N+](C)(C)CCO[C@@H](N[*:3])[C@H](O)C[C@H](N[*:1])C(=O)[*:2]; pTerphenylCO(4''-OnC5H11) = CCCCCOc1ccc(-c2ccc(-c3ccc(C(=O)*)cc3)cc2)cc1; hTyr(3S-OH,4S-OH) = N[C@H](C(=O)O)[C@H](O)[C@@H](O)c1ccc(O)cc1; Pro(3S-OH,4S-Me) = C[C@H]1CN[C@H](C(=O)O)[C@H]1O; Hyp = O=C(O)[C@@H]1C[C@@H](O)CN1"}
{"smiles": "CCCCCOc1ccc(-c2ccc(-c3ccc(C(=O)N[C@H]4C[C@@H](O)[C@@H](OCC[N+](C)(C)C)NC(=O)[C@@H]5[C@@H](O)[C@@H](C)CN5C(=O)[C@H]([C@@H](C)O)NC(=O)[C@H]([C@H](O)[C@@H](O)c5ccc(O)cc5)NC(=O)[C@@H]5C[C@@H](O)CN5C(=O)[C@H]([C@@H](C)O)NC4=O)cc3)cc2)cc1", "note": "[rezafungin] ({pTerphenylCO(4''-OnC5H11)}-[Orn(4R-OH,5R-OCH2CH2NMe3+)]T[Hyp][hTyr(3S-OH,4S-OH)]T[Pro(3S-OH,4S-Me)]; lactam 1-C)", "values": [{"measurement": "Average total recovery of radioactivity", "setting": "[1]; 3 male monkeys, single 10 mg/kg IV 20-min infusion (100 μCi/kg), at 168 h (1 week) postdose, LSC", "value": "47.02 % of the dose"}, {"measurement": "Radioactivity recovered in feces", "setting": "[1]; monkeys, 10 mg/kg IV, at 720 h postdose", "value": "60 % of the administered dose"}, {"measurement": "Mean total recovery of radioactivity", "setting": "[1]; monkeys, 10 mg/kg IV, through 360 h postdose", "value": "65 % of the dose"}, {"measurement": "Radioactivity recovered in cage residue", "setting": "[1]; [7]", "value": "4.3 % of the administered dose"}, {"measurement": "Radioactivity recovered in urine", "setting": "[1]; [7]", "value": "9.7 % of the administered dose"}, {"measurement": "t1/2 of plasma total radioactivity", "setting": "[2]", "value": 54, "unit": "h"}, {"measurement": "t1/2 of plasma total radioactivity", "setting": "[3]; monkey, IV [14C]-rezafungin 10 mg/kg, mean plasma concentrations", "value": 170, "unit": "h"}, {"measurement": "Ratio of blood-to-plasma AUC (radioactivity)", "setting": "[3]; monkeys, 10 mg/kg IV", "value": "approximately 1"}, {"measurement": "Time of maximum blood and plasma radioactivity concentrations", "setting": "[3]; monkeys, single IV 20-min infusion 10 mg/kg, first postdose sample", "value": 0.5, "unit": "h"}, {"measurement": "Radioactivity recovered in feces", "setting": "[4]; bile duct cannulated rats (n = 3), single IV 15 mg/kg, until 120 h postdose", "value": "35 % of the administered dose"}, {"measurement": "Radioactivity recovered in the carcass", "setting": "[4]; bile duct cannulated rats, IV 15 mg/kg, euthanized at 120 h postdose, average", "value": "30 % of the administered dose"}, {"measurement": "Average total recovery of radioactivity", "setting": "[4]; bile duct cannulated rats, IV 15 mg/kg, until 120 h postdose", "value": "98 % of the administered dose"}, {"measurement": "Radioactivity recovered in bile", "setting": "[4]; [8]", "value": "17 % of the administered dose"}, {"measurement": "Radioactivity recovered in cage residues", "setting": "[4]; [8]", "value": "1.2 % of the administered dose"}, {"measurement": "Radioactivity recovered in feces", "setting": "[4]; intact (non-bile duct cannulated) male rats, single IV bolus 15 mg/kg (200 μCi/kg), through 336 h postdose", "value": "70 % of the administered dose"}, {"measurement": "Radioactivity recovered in the carcass", "setting": "[4]; intact rats, IV 15 mg/kg, at 336 h postdose, average", "value": "7.9 % of the administered dose"}, {"measurement": "Radioactivity recovered in cage residues", "setting": "[4]; [9]", "value": "2.5 % of the administered dose"}, {"measurement": "Radioactivity recovered in urine", "setting": "[4]; [9]", "value": "14 % of the administered dose"}, {"measurement": "Treatment-emergent adverse events (TEAEs) reported, total number", "setting": "[5]; 9 healthy male subjects", "value": 13}, {"measurement": "Deaths, SAEs", "setting": "[5]; 9 subjects", "value": "no deaths or other SAEs"}, {"measurement": "Laboratory assessments, vital signs, ECGs, physical examinations", "setting": "[5]; 9 subjects", "value": "no clinically relevant treatment-related findings"}, {"measurement": "Severe TEAEs", "setting": "[5]; 9 subjects", "value": "no severe TEAEs"}, {"measurement": "Subjects with diarrhea (most common TEAE)", "setting": "[5]; of 9 subjects", "value": "two"}, {"measurement": "Cmax", "setting": "[6]; male, plasma, single 400-mg IV infusion, LC-MS/MS, mean (SD), SD", "value": 18900, "unit": "ng/mL"}, {"measurement": "AUC(0-inf)", "setting": "[6]; male, plasma, single 400-mg IV infusion, LC-MS/MS, mean (SD), SD, read-out: AUC0-∞, plasma rezafungin", "value": 2110, "unit": "µg·h/mL"}, {"measurement": "Vd", "setting": "[6]; male, plasma, single 400-mg IV infusion, apparent volume of distribution, terminal phase, mean (SD), SD, read-out: VZ, plasma rezafungin", "value": 88.6, "unit": "L"}, {"measurement": "Tmax", "setting": "[6]; male, plasma, single 400-mg IV infusion, median (min, max)", "value": 1, "unit": "h"}, {"measurement": "half-life", "setting": "[6]; male, plasma, single 400-mg IV infusion, terminal elimination half-life, mean (SD), SD, read-out: t½, plasma rezafungin (converted)", "value": 341, "unit": "h"}, {"measurement": "AUC(0-t)", "setting": "[6]; plasma, 9 healthy male subjects, single 400-mg IV infusion (200 μCi), LC-MS/MS, arithmetic mean (SD), SD, read-out: AUC0-t, plasma rezafungin", "value": 2050, "unit": "µg·h/mL"}, {"measurement": "AUC0-t, plasma total radioactivity", "setting": "[6]; single 400-mg IV infusion (200 μCi), LSC, mean (SD)", "value": "2600 (163) μg equivalent×hour/ml"}, {"measurement": "AUC0-t, whole blood total radioactivity", "setting": "[6]; [10]", "value": "2390 (175) μg equivalent×hour/ml"}, {"measurement": "AUC0-∞, plasma total radioactivity", "setting": "[6]; [10]", "value": "2750 (182) μg equivalent×hour/ml"}, {"measurement": "AUC0-∞, whole blood total radioactivity", "setting": "[6]; [10]", "value": "2450 (200) μg equivalent×hour/ml"}, {"measurement": "Cmax, plasma total radioactivity", "setting": "[6]; [10]", "value": "18.2 (2.28) μg/ml"}, {"measurement": "Cmax, whole blood total radioactivity", "setting": "[6]; [10]", "value": "18.5 (2.24) μg/ml"}, {"measurement": "t½, plasma total radioactivity", "setting": "[6]; [11]", "value": "387 (44.8) hours"}, {"measurement": "t½, whole blood total radioactivity", "setting": "[6]; [11]", "value": "408 (39.7) hours"}, {"measurement": "tmax, plasma total radioactivity", "setting": "[6]; [12]", "value": "1.00 (1.00, 1.00) hours"}, {"measurement": "tmax, whole blood total radioactivity", "setting": "[6]; [12]", "value": "1.00 (1.00, 1.00) hours"}]}
